Experimental data published in ChEMBL document CHEMBL2074228, “Cloning and functional characterization of a potential-sensitive, polyspecific organic cation transporter (OCT3) most abundantly expressed in placenta” (J Biol Chem, 1998).
Values joined by “and” are separate entries in the source; they are usually repeats but may differ in a detail not shown here. Equal entries are not always repeated.

Key:
[1] = molecular target: T1, OCT3 (Solute carrier family 22 member 3) (Rattus norvegicus, UniProt O88446); assay: TP_TRANSPORTER: inhibition of Guanidine uptake (Guanidine: 35 uM, MPTP: 5000 uM) in OCT3-expressing HeLa cells; assay type: functional, cell-based; design: scale not given: the % may be the effect or the level left; settings: human, probe guanidine (35 uM), read-out: Activity
T1 sequence (O88446 whole entry): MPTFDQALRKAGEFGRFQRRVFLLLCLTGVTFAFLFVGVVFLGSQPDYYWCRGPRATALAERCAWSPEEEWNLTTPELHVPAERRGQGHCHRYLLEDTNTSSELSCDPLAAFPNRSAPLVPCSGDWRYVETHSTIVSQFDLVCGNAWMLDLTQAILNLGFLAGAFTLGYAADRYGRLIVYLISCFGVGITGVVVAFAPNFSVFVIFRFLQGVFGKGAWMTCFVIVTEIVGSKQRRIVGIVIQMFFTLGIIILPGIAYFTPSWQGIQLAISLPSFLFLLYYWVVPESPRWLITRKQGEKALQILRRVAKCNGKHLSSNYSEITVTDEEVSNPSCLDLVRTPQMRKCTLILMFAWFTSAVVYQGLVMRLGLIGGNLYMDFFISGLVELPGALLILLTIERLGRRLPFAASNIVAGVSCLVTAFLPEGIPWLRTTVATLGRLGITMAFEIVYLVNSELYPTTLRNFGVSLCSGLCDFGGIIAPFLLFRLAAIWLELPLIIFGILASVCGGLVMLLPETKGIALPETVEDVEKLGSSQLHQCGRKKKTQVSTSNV

[2] = molecular target: T1, OCT3 (Solute carrier family 22 member 3); assay: TP_TRANSPORTER: inhibition of Guanidine uptake (Guanidine: 35 uM, MPP+: 5000 uM) in OCT3-expressing HeLa cells; assay type: functional, cell-based; design: scale not given: the % may be the effect or the level left; settings: human, probe guanidine (35 uM), read-out: Activity
[3] = molecular target: T1, OCT3 (Solute carrier family 22 member 3); assay: TP_TRANSPORTER: inhibition of Guanidine uptake (Guanidine: 35 uM, Desipramine: 5000 uM) in OCT3-expressing HeLa cells; assay type: functional, cell-based; design: scale not given: the % may be the effect or the level left; settings: human, probe guanidine (35 uM), read-out: Activity
[4] = molecular target: T2, Solute carrier family 22 member 3 (Rattus norvegicus, UniProt O88446); assay: TP_TRANSPORTER: uptake in OCT3-expressing HeLa cells; assay type: functional, cell-based; settings: human
T2 sequence (O88446 whole entry): T1 sequence (O88446 whole entry)

[5] = molecular target: T2, Solute carrier family 22 member 3; assay: TP_TRANSPORTER: uptake in Xenopus laevis oocytes; assay type: functional, cell-based; settings: oocyte
[6] = molecular target: T1, OCT3 (Solute carrier family 22 member 3); assay: in vitro; settings: human, OCT3-expressing HeLa cells, probe guanidine (35 uM)
[7] = molecular target: T1, OCT3 (Solute carrier family 22 member 3); assay: TP_TRANSPORTER: inhibition of Guanidine uptake (Guanidine: 35 uM, NMN: 5000 uM) in OCT3-expressing HeLa cells; assay type: functional, cell-based; design: scale not given: the % may be the effect or the level left; settings: human, probe guanidine (35 uM), read-out: Activity
[8] = molecular target: T1, OCT3 (Solute carrier family 22 member 3); assay: TP_TRANSPORTER: inhibition of Guanidine uptake (Guanidine: 35 uM, Serotonin: 5000 uM) in OCT3-expressing HeLa cells; assay type: functional, cell-based; design: scale not given: the % may be the effect or the level left; settings: human, probe guanidine (35 uM), read-out: Activity
[9] = molecular target: T1, OCT3 (Solute carrier family 22 member 3); assay: TP_TRANSPORTER: inhibition of Guanidine uptake (Guanidine: 35 uM, TMA: 5000 uM) in OCT3-expressing HeLa cells; assay type: functional, cell-based; design: scale not given: the % may be the effect or the level left; settings: human, probe guanidine (35 uM), read-out: Activity
[10] = molecular target: T1, OCT3 (Solute carrier family 22 member 3); assay: in vitro; settings: human, OCT3-expressing HeLa cells, probe guanidine (35 uM); remark: listed apart in the source
Description: TP_TRANSPORTER: inhibition of Guanidine uptake (Guanidine: 35 uM, TEA: 5000 uM) in OCT3-expressing HeLa cells

[11] = substrate: CC[N+](CC)(CC)CC; assay: cells, lysate or membranes named

Molecule: CN1CC=C(c2ccccc2)CC1
- activity at 5000 µM [1]: 14%

Molecule: C[n+]1ccc(-c2ccccc2)cc1
- activity at 5000 µM [2]: 22%

Molecule: CNCCCN1c2ccccc2CCc2ccccc21 [DESIPRAMINE]
- activity at 5000 µM [3]: 1%

Molecule: N=C(N)N [GUANIDINE]
- Activity [4]: substrate [+]
- Activity [5]: substrate [+]

Molecule: CN1CCC[C@H]1c1cccnc1 [NICOTINE]
- activity at 5000 µM [6]: 52%

Molecule: CNC(=O)c1cccnc1 [NICOTINYL METHYLAMIDE]
- activity at 5000 µM [7]: 33%

Molecule: NCCc1c[nH]c2ccc(O)cc12 [SEROTONIN]
- activity at 5000 µM [8]: 30%

Molecule: C[N+](C)(C)C [TETRAMETHYLAMMONIUM]
- activity at 5000 µM [9]: 59%

Molecule: CC[N+](CC)(CC)CC [TETRYLAMMONIUM]
- activity at 5000 µM [10]: 41%

B1: Solute carrier family 22 member 3 (Rattus norvegicus) (protein)
chain: T1 sequence (O88446 whole entry)
- Km [11]: 2.5 mM and 6.2 mM
